The values that follow come from patent publication US5141947A, “Fibrinolysis-enhancing agents” (Mitsubishi Kasei Corporation, priority 1984, dated 1992).

Data set [1] has as its system fibrinolysis of plasma by t-PA (tissue plasminogen activator). The experiment in a line: fibrinolysis of plasma aggregation effected by t-PA; 0.15 ml plasma in 0.7 ml total (Examples 2 and 3). Format: biochemical, healthy person (human). The procedure:
(§1) One part by volume of 3.8% sodium citrate solution was added to 9 parts by volume of the venous blood of a healthy person and centrifuged at 3,000 rpm for 15 minutes to collect the plasma.
(§2) There was placed 0.6 ml of the plasma into a spectrophotometric microcell having a path length of 10 mm and a path width of 2 mm. After adding 0.015 ml of physiological saline containing the compound (Ia) in various concentrations, the cell was held in the cell holder of a spectrophotometer, Hitachi 220 A, which was maintained at 37° C. and incubated for 5 minutes. Into the cell, there was added 0.025 ml of a solution of 8.0 μg/ml t-PA (tissue plasminogen activator) or 3,000 international units per ml high molecular weight UK, urokinase manufactured by The Green Cross Corporation, and […] CaCl2 solution. Changes in the absorbance at 608 nm were recorded at 37° C. every one minute. Thus, the coagulation and fibrinolysis of the plasma were measured with the time lapse.
(§3) The coagulation time is defined as a time period from the time 0 at which CaCl2 solution is added to a coagulation initiation time at which the absorbance has increased to a value larger by 0.025 than the value at the time 0: i.e., delta A is 0.025. The dissolution time is defined as a time period from the coagulation initiation time to a fibrinolysis termination time at which the absorbance has decreased to a value 10% that of the maximum value.
(§4) The procedures of Example 1 were repeated except that a less amount cf plasma was used. Thus, in the same manner as Example 1, there was collected 0.15 ml of plasma to which 0.1 ml of physiological saline containing the compound (Ia) in various concentrations was added, the total volume was adjusted to 0.375 ml, the resulting mixture was incubated at 37° C. for 5 minutes, 0.025 ml of a solution of 1.6 μg/ml t-PA or 500 international units per ml high molecular weight UK and 0.3 ml of 0.025M CaCl2 solution were added, and the coagulation and fibrinolysis of the plasma were measured with the time lapse to determine the coagulation time and dissolution time.
Activities of arginine derivatives having the thrombin-inhibiting effect and the structural formula shown below on the fibrinolysis by t-PA were estimated in the same manner as Example 2.

Data set [2] deals with thrombus in carotid artery of rabbit. The experiment in a line: in vivo thrombolysis by t-PA, rabbit carotid artery thrombus (Example 4). Particulars: Compound (Ia) 1.2 mg/kg alone. Here is the method:
The carotid artery of a rabbit was exposed from the surrounding tissue under anesthesia by pentobarbital. The exposed artery was surrounded with absorbent cotton soaked with glacial acetic acid and allowed to stay for 3 hours to form thrombus by the damage done to the endorthelium. The thus formed thrombus was tested for dissolution. Immediately after removing out the cotton, physiological saline in which the substance to be tested had been dissolved was injected through the femoral vein. The infusion was continued over 2 hours. After the infusion, the arterial segment wherein the thrombus had been formed was cut out and the thrombus mass was removed out under a microscope. The thrombus was dissolved in alkali and the protein was quantitatively measured by phenol method.

Data set [3] can be described thus: acute toxicity, LD50, intravenous, male mice. The settings on record: mouse, in vivo, male mice weighing 20 g. Here is the method:
The arginine derivative of the formula (Ia) above was prepared in accordance with Example 2 described in the European Patent Application Publication No. 8746.

The subject of data set [4] is fibrinolysis of plasma by UK (urokinase). The experiment in a line: fibrinolysis of plasma aggregation effected by UK; 0.6 ml plasma in 0.7 ml total (Example 1). Format: biochemical, healthy person (human). The settings on record: for Coagulation Time / Dissolution Time: n=5, average ± S.E.M. The procedure:
as §1, §2
(§5) In the FIGURE, the ordinate represents the difference of absorbance (ΔA) at 608 nm and the abscissa represents the time in minutes.
(§6) The effects of the compound (Ia) on the dissolution time and the coagulation time were measured on the plasma from five healthy persons. […] Values in Tables are expressed in the average+S.E.M.
as §3

Data set [5] has as its system fibrinolysis of plasma by t-PA (tissue plasminogen activator). As to the kind of experiment: fibrinolysis of plasma aggregation effected by t-PA; 0.6 ml plasma in 0.7 ml total (Example 1). It counts as biochemical, healthy person (human). Particulars: for Coagulation Time / Dissolution Time: n=5, average ± S.E.M. Here is the method: as §1, §2, §5, §6, §3
Data set [6] deals with fibrinolysis of plasma by UK (urokinase). As to the kind of experiment: fibrinolysis of plasma aggregation effected by UK; 0.15 ml plasma in 0.7 ml total (Example 2). Format: biochemical, healthy person (human). Here is the method: as §1, §2, §3, §4
The mark [7] stands for this setting: Table 5, 0.3 μM, control 2.9 min.
Setting [8] is: Table 5, 0.3 μM, control 95.7 min.

Take `COCCN(CC(=O)O)C(=O)[C@H](CCCNC(=N)N)NS(=O)(=O)c1ccc2cc(OC)c(OC)cc2c1` [Compound 1]: the “Coagulation Time” value in data set [1] (setting [7]) stood at 3.2 min. In data set [1] (setting [8]), the “Dissolution Time” value is 55.4 min.

Turning to `COc1ccc2ccc(S(=O)(=O)N[C@@H](CCCNC(=N)N)C(=O)N3CCC(C)CC3C(=O)O)cc2c1` (stereo partly shown) [Compound 2], the “Coagulation Time” value in data set [1] (setting [7]) was determined as 4.1 min. The “Dissolution Time” value in data set [1] (setting [8]) came out at 36.5 min.

As for `CCC1CCN(C(=O)[C@H](CCCNC(=N)N)NS(=O)(=O)c2ccc3cc(OC)c(OC)cc3c2)C(C(=O)O)C1` (stereo partly shown) [Compound 3], the “Coagulation Time” value in data set [1] (setting [7]) amounted to 3.2 min. Moreover, the “Dissolution Time” value in data set [1] (setting [8]) is given as 53.4 min.

Take `Cc1ccc2ccc(S(=O)(=O)N[C@@H](CCCNC(=N)N)C(=O)N3CCC(C)CC3C(=O)O)cc2c1` (stereo partly shown) [Compound 4]: in data set [1] (setting [7]), the “Coagulation Time” value was 3.1 min. Also, the “Dissolution Time” value in data set [1] (setting [8]) is 50.5 min.

Consider `CC1CNc2c(cccc2S(=O)(=O)N[C@@H](CCCNC(=N)N)C(=O)N2CC[C@@H](C)C[C@@H]2C(=O)O)C1` (stereo partly drawn) [Compound (Ia), (2R, 4R)-1-[N^2-(3-methyl-1,2,3,4-tetrahydro-8-quinolinesulfonyl)-L-arginyl]-4-methyl-2-piperidinecarboxylic acid], for which the thrombolytic effect entry in data set [2] is “no thrombolytic effect”. For the same compound, the “Thrombus Protein” value in data set [2] (2 h infusion, femoral vein, n=4, saline control 1.97 ± 0.38) was found to be 2.03 ± 0.55 mg. The Coagulation Time entry in data set [1] (0.01 μM) was “prolonged slightly”; in data set [1] (0.01 μM, n=5) it was 4.5 ± 0.2 min; in data set [1] (0.03 μM, n=5), 5.0 ± 0.2 min; in data set [1] (0.1 μM, n=5), 6.7 ± 0.3 min; in data set [1] (0.3 μM, n=5), 9.0 ± 0.3 min; in data set [4] (0.1 μM), 8.8 ± 1.1 min. Further, the “Coagulation Time” value is on record as 10.2 ± 1.4 min in data set [4] (0.3 μM); 10.6 ± 2.0 min in data set [5] (0.1 μM); 13.8 ± 2.8 min in data set [5] (0.3 μM); “prolonged slightly” in data set [6] (0.01 μM); 4.9 ± 0.6 min in data set [6] (0.01 μM, n=5); 5.5 ± 0.4 min in data set [6] (0.03 μM, n=5). Moreover, the “Coagulation Time” value turned out to be 7.4 ± 0.8 min in data set [6] (0.1 μM, n=5) and 9.9 ± 0.8 min in data set [6] (0.3 μM, n=5). Further, the “Dissolution Time” value in data set [1] (0.01 μM, n=5) came out at 64.1 ± 10.2 min; in data set [1] (0.03 μM, n=5), 51.6 ± 7.7 min; in data set [1] (0.1 μM, n=5), 34.5 ± 5.2 min; in data set [1] (0.3 μM, n=5), 26.6 ± 2.4 min; in data set [4] (0.1 μM) it was 28.2 ± 5.2 min; in data set [4] (0.3 μM), 24.6 ± 4.3 min. In addition, the “Dissolution Time” value in data set [5] (0.1 μM) is given as 33.0 ± 2.0 min; in data set [5] (0.3 μM), 32.0 ± 2.8 min; in data set [6] (0.01 μM, n=5) it was 63.8 ± 11.8 min; in data set [6] (0.03 μM, n=5), 35.9 ± 5.7 min; in data set [6] (0.1 μM, n=5), 23.4 ± 2.2 min; in data set [6] (0.3 μM, n=5), 22.5 ± 1.3 min. Further, the “dissolution time decreased to fraction of the time without addition” value in data set [1] (0.3 μM) was “about 1/3”; in data set [6] (0.3 μM), “about 1/4”. The fibrinolysis result in data set [1] (as low as 0.01 μM) and in data set [6] (as low as 0.01 μM) was “enhanced” each time. This compound registered a median lethal dose (LD50) in data set [3] of 211 mg/kg. The “dissolution time, in comparison with no addition” value in data set [4] (0.1 μM or 0.3 μM) and in data set [5] (0.1 μM or 0.3 μM) was “significantly reduced” each time.
